Source: PubChem BioAssay (NCI)
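Results reflect a 48-hour exposure of cells in 96-well plates to compound at five concentrations. GI50 marks 50% less growth. TGI: concentration producing complete growth inhibition.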

How the values were obtained:
Test in all cases: NCI tumour cell line growth inhibition, 48 h
[1] = tested on: HL-60(TB) leukemia
[2] = tested on: CCRF-CEM leukemia
[3] = tested on: SF-539 CNS
[4] = tested on: K-562 leukemia
[5] = tested on: HOP-92 NSCLC
[6] = tested on: SN12C renal
[7] = tested on: SF-295 CNS
[8] = tested on: A549 NSCLC
[9] = tested on: SF-268 CNS
[10] = tested on: BT-549 breast

Compound	TGI [1] [µM]	TGI [2] [µM]	TGI [3] [µM]	TGI [4] [µM]	TGI [5] [µM]	TGI [6] [µM]	TGI [7] [µM]	TGI [8] [µM]	TGI [9] [µM]	TGI [10] [µM]	GI50 [1] [µM]	GI50 [2] [µM]	GI50 [3] [µM]	GI50 [4] [µM]	GI50 [5] [µM]	GI50 [6] [µM]	GI50 [7] [µM]	GI50 [8] [µM]	GI50 [9] [µM]	GI50 [10] [µM]
C=C(C)C1Cc2cc(C(C)=O)ccc2O1 (stereo not given)	> 100	> 100	> 100	> 100	> 100	> 100	> 100	> 100	> 100	> 100										
CC(=O)OCCC/C(=C/c1cc2ccccc2c2ccccc12)[N+](=O)[O-]	4.57	> 25.3	2.86	6.87	3.7	3.75	2.32	3.74	2.89	3.26	1.43	2.52	1.53	1.7	1.38	1.75	0.977	1.84	1.47	1.56
CCSc1nc(N)c(C#N)c(-c2ccc(OC)c(OC)c2)c1C#N	> 50		40.3	27.7	> 50	> 50	> 50	> 50	35.1	> 50	21.8		19	10.7	6.49	15.1	19.1	17	11.1	39.5
Nc1n[nH]c2cc(F)c([C@@H]3Nc4c(F)cc5[nH]ncc5c4[C@H]4C5CCC(C5)[C@@H]34)cc12 (stereo not given in full)	0.317	28.7	0.23	12.7	4.1	9.46	3.82	13.9	4.49	1.37	0.1	0.127	0.0792	0.11	0.36	0.187	0.0971	0.134	0.306	0.103
COc1ccc(OC)c(-c2nc3sc(C)cn3c2/C=C2\C(=O)N(C)c3ccccc32)c1	31.6	83	42.5	71.1		50.7	46.7	> 100	63.6	81.6	11.5	5.8	21.8	5.98		20.6	19.6	28.4	19.7	26.2
COC(=O)C[C@@H]1CC=CC(=O)/C1=C(O)/C=C/c1ccccc1	4.31	1.19	7.15		2.82	2.99	4.42	22	3.75	2.86	1.24	0.264	0.433	0.364	1.33	0.462	2.05	4.23	1.37	1.48
Cc1cc(O)cc(-c2nn(C)cc2-c2cc(N3CCOCC3)nc(-c3cccnc3)n2)c1	20.2	33.9	4.8	> 100	8.64	> 100	14.6	> 100	> 100	20.8	2.81	2.72	1.88	1.96	1.66	5.51	3.28	6.54	7.29	3.17
